The conditions of series [1]: cited from earlier work.
The conditions of series [2]: cited from earlier work. This is another data set of the same source.
For series [3] the following is noted: oral, 80 mg strength IR tablets; cited from earlier work.
The procedure of series [4]:
Therefore, drug-interaction studies were undertaken by the inventors and the samples were evaluated for chemical stability.

A word on the half-life: it is the time needed for the level to fall by half in the phase considered.

Where a name gives a salt, the structure may show the parent alone. Bounds are passed on as bounds.

In the case of `CNC1=Nc2ccc(Cl)cc2C(c2ccccc2)=[N+]([O-])C1.Cl` [Chlordiazepoxide HCl, Chlordiazepoxide hydrochloride], in series [1] (after discontinuation), the “plasma levels after administration is discontinued” value is “decline slowly over a period of several days”. In series [1] (in vivo), the half-life was 24 to 48 h and the “time for peak blood levels to be reached” value is “several hours”.

As for `CCOc1ccc(/C=C2\NCCc3cc(OCC)c(OCC)cc32)cc1OCC` [Drotaverine], the “oral LD50” value in series [2] is recorded as above 1000 mg/Kg body weight. In addition, the “drug absorption from small intestine” value in series [3] was around 90%.

Consider `CCOc1ccc(/C=C2\NCCc3cc(OCC)c(OCC)cc32)cc1OCC` [Drotaverine HCl, Drotaverine hydrochloride], for which, in series [4], the “chemical stability / degradation in acidic environment” value is listed as “best chemical stability”, the “degradation in basic conditions” value was “degrades significantly” and the “degradation in oxidative conditions / peroxide solution” value is on record as “degrades significantly”.

Source of the values: patent US20230248718A1, “PHARMACEUTICAL COMBINATION OF ANTISPASMODIC AND ANXIOLYTIC AGENT” (priority 2022, published 2023).
